Columns and labels:
[1] = test system: L. (L.) infantum promastigotes; test: Anti-promastigote activity, MTT viability assay; format: cell-based, Leishmania (Leishmania) infantum; conditions: for IC50: Leishmania infantum, 48 h incubation, MTT, value (SD)
Method: (§1) L. (L.) infantum (MHOM/BR/1972/LD) promastigotes were maintained in M-199 medium supplemented with 10% heat-inactivated fetal bovine serum (FBS) (Gibco, Thermo Fisher Scientific, São Paulo, Brazil), 0.25% hemin (Sigma-Aldrich), and 5% human urine at 24 °C. Amastigotes were obtained from the spleen of previously infected hamsters by differential centrifugation. Macrophages were collected from the peritoneal cavity of BALB/c mice by washing with RPMI-1640 medium supplemented with 10% FBS, and were maintained at 37 °C in a 5% CO2-humidified incubator. Murine fibroblasts NCTC (clone L929 ATCC) were used to evaluate the cytotoxicity of the tested compounds. NCTC cells were maintained in M-199 medium supplemented with 10% FBS and 20 μg/mL gentamicin at 37 °C in a 5% CO2-humidified incubator.
Compounds were dissolved in DMSO and diluted in M-199 medium in 96-well microplates, with the highest concentration of 150 μM. Promastigotes of L. (L.) infantum in the late growth-phase were seeded at 1 × 10^6/well and incubated with the compounds for 48 h. The viability of cells was determined using the MTT assay. An internal control group was used with 0.5% DMSO (maximal concentration). Miltefosine was used as standard drug.
(§2) Data processing and statistical analyses was done with GraphPad Prism® 5.0 (GraphPad Software, Inc. La Jolla, CA, USA). For determination of antileishmanial activity and NCTC cytotoxicity, the IC50 and CC50 values were calculated after normalization using sigmoidal dose-response curves. The evaluation of statistical significance of multiple pairs was done with a Tukey's range test, which corrects for the increased probability of a type I error during multiple comparison.

L. (L.) mexicana = test system: L. (L.) mexicana; parameters: method as in PMID 18576826; conditions: cited from earlier work
[2] = test system: L. (L.) infantum promastigotes; test: ROS production, H2DCFDA, flow cytometry; format: cell-based, Leishmania (Leishmania) infantum
Method: (§3) The Δψm and ROS content of promastigotes treated with compound 1 were determined using the fluorescence probes rhodamine 123 and H2DCFDA (Molecular Probes Inc., Eugene, OR, USA), respectively, and further evaluated by flow cytometry. Briefly, 2 × 10^6 promastigotes/well cultured until the late growth-phase were treated with 12 μM of 1 (corresponding to the IC99 value obtained with 1 × 10^6 parasites/well). The parasites were incubated in HANKS’ balanced salts solution (HBSS; Sigma-Aldrich, Carlsbad, CA, USA), supplemented with 10 mM D-Glucose, at 26 °C for 1 h. Afterwards the parasites were washed and stained with rhodamine 123 (0.3 μg/mL) or H2DCFDA (5 μM) for 15 min under absence of light. The washed parasites were resuspended in PBS and the fluorescence was measured in a Flow Cytometer Attune Nxt (ThermoFisher Scientific, Waltham, MA, USA) using the forward scatter (FSC, relative cell size) and the side scatter detectors (SSC, cell granulometry or internal complexity), FL1-A (detecting fluorescence emission 530 ± 15 nm), and Attune Nxt software. As control, untreated promastigotes (not stained with Rd123 or H2DCFDA) served to monitor the basal fluorescence. […] Samples were tested in duplicate. Two independent assays were performed.

[3] = Mammalian cytotoxicity, MTT assay; format: cell-based, murine; conditions: mouse, NCTC murine fibroblasts, 48 h, MTT, value (SD); for CC50 at 48 h: NCTC clone L929 fibroblasts
Method: as §1
(§4) NCTC cells were seeded at 6 × 10^4 in 96-well microplates and incubated with the compounds for 48 h. An internal control group was used with 0.5% DMSO (maximal concentration). The quantification of viable cells was assessed by the MTT assay. The selectivity index (SI) was determined using the following equation: SI = CC50 in NCTC cells / IC50 against amastigotes.
as §2

[4] = test system: L. (L.) infantum intracellular amastigotes; test: Activity against intracellular amastigotes in peritoneal macrophages, Giemsa staining and light microscopy; format: cell-based, Leishmania (Leishmania) infantum; conditions: for IC50: Leishmania infantum, Peritoneal macrophage, intracellular amastigotes in murine peritoneal macrophages, 120 h, highest concentration 100 μM, value (SD)
Method: as §1
Murine peritoneal macrophages were collected from the peritoneal cavity of BALB/c mice, and the macrophages were seeded at 1 × 10^5/well for 24 h in a 16-well slide. Amastigotes were prepared (as described previously), seeded at a ratio 1:10 (macrophages:amastigotes) and kept at 37 °C in a 5% CO2-humidified incubator for 24 h. Test compounds were incubated to the highest concentration of 100 μM with infected macrophages for 120 h. Miltefosine was used as a standard drug. Subsequently, the cells were fixed with methanol, stained with Giemsa (Merck KGaA, Darmstadt, Germany), and observed using a light microscope. The parasite burden was determined by the number of infected macrophages out of 400 cells.
as §2

[5] = test system: axenic amastigotes (extracellular) of L. (L.) amazonensis; parameters: method as in PMID 24913205; conditions: cited from earlier work
[6] = test system: peritoneal macrophages of BALB/c mice; test: Nitric oxide production in macrophages, Griess assay; format: cell-based, Mus musculus; conditions: 3 μM, 24 h, similar levels as LPS
Method: The NO production of macrophages treated with 1 was performed using the Griess assay. Briefly, 1 × 10^5/well peritoneal macrophages of BALB/c mice were seeded overnight in a 96-well plate. Fresh medium containing compound 1 at 3 µM (corresponding to the CC25 value obtained with NCTC cells) or 5 µg/mL LPS (positive control) were added and incubated for 24 h at 37 °C. Afterwards the NO content of each of the cultures’ supernatant was analysed using the Griess assay. The samples’ NO content was determined by means of a standard curve prepared with NaNO2 at concentrations from 0 to 400 μM.

[7] = test system: Murine fibroblasts NCTC (clone L929 ATCC); test: Mammalian cytotoxicity, MTT assay; format: cell-based; conditions: NCTC cells
Method: as §1, §4, §2

[8] = test system: L. (L.) infantum promastigotes plasma membrane; test: Plasma membrane permeability, SYTOX Green; format: cell-based, Leishmania (Leishmania) infantum; conditions: 3 and 6 μM, 60 min, compared with untreated parasites
Method: Late-growth-phase (non-stationary) promastigotes were incubated with the probe SYTOX Green (Molecular Probes Inc., Eugene, OR, USA), as previously described. […] 1 was added at 3 and 6 μM to 1 × 10^6 cells/well, at 24 °C. The fluorescence was measured every 20 min (0–80 min). At the end of the assay (80 min), 0.1% Triton X-100 was added to all wells to obtain the maximum permeabilization of parasites. Fluorescence intensity was determined using a fluorimetric microplate reader (FilterMax F5 Multi-Mode Microplate Reader-Molecular Devices, Sunnyvale, CA, USA) with excitation and emission wavelengths of 485 and 520 nm, respectively. The following internal controls were used during the evaluation: (i) the background fluorescence of the compound at the respective wavelengths; (ii) the possible interference of DMSO; (iii) untreated promastigotes; and (iv) medium without any cells. Samples were tested in duplicate.

[9] = test system: L. (L.) infantum promastigotes; test: Mitochondrial membrane potential, rhodamine 123, flow cytometry; format: cell-based, Leishmania (Leishmania) infantum; conditions: 6 μM, 1 h, compared with untreated parasites
Method: as §3, with “Briefly, 2 × 10^6 promastigotes/well cultured until the late growth-phase were treated with 12 μM of 1 (corresponding to the IC99 value obtained with 1 × 10^6 parasites/well).” left out

[10] = test system: L. (L.) infantum promastigotes; test: Ultrastructural analysis by transmission electron microscopy; format: cell-based, Leishmania (Leishmania) infantum; conditions: 0.5-4 h incubation; 1 μM or 120 μM
Method: Ultrastructural studies were performed with promastigotes treated with compound 1 by TEM. L. (L.) infantum promastigotes in the late growth phase were washed and incubated with 120 μM of 1 (corresponding to the IC99 value obtained with 1 × 10^6 parasites/well) at 2 × 10^7/well in 200 μL M-199 medium. Compound incubation was performed for 0.5, 1, 2, 3, and 4 h under the previously described growth conditions. After centrifugation at 2800 rpm for 10 min, the parasites were fixed with 1 mL glutaraldehyde and the sample processing was performed according to Duarte et al.. The TEM imaging was performed on a JEOL 1011 transmission electron microscope (Peabody, MA, USA).

Structure (SMILES)	IC50 [1] [µM]	CC50 [3] [µM]	IC50 [4] [µM]	CC50 at 48 h [3] [µM]	further results
CCCCCCCCCCCCCCCCOP(=O)([O-])OCC[N+](C)(C)C [Miltefosine, reference compound]	16.7				
C=C1C(=O)O[C@@H]2C[C@@H](C)[C@@H]3C=CC(=O)[C@@]3(C)[C@@H](O)[C@H]12 [helenalin, reference compound]					activity against L. (L.) mexicana (L. (L.) mexicana): activity against L. (L.) mexicana at low concentrations
CC[C@H]1/C=C/C=C/C[C@@H](C)[C@H](O)[C@@](C)(O)C(=O)[C@@H](C)[C@H](O)[C@@H](C)C(=O)[C@@H](C)[C@H](O)[C@@H](C)/C=C/C(=O)O[C@@H]2[C@H](C)[C@H](CC1)O[C@]1(CC[C@H](C)[C@H](C[C@@H](C)O)O1)[C@H]2C [oligomycin, reference compound]					ROS production (H2DCFDA) ([2]; oligomycin 20 μM, positive control): increased the ROS production over time
C=C1C(=O)O[C@@H]2/C=C(/CO)C3=CC(=O)[C@@](C)(C[C@@H](OC(=O)/C(C)=C/C)[C@@H]12)O3 [Budlein A (7), Budlein A]	28	9.05			
C=C1C(=O)O[C@H]2C[C@@H](C)[C@@H]3C=CC(=O)[C@@]3(C)[C@H](O)[C@H]12 [Mexicanin I (2), Mexicanin I]	4.89	9.2	1.73		activity against L. (L.) mexicana (L. (L.) mexicana): activity against L. (L.) mexicana at low concentrations
C=C(CO)C(=O)O[C@H]1CC(=C)[C@@H]2C[C@H](O)C(=C)[C@@H]2[C@H]2OC(=O)C(=C)[C@@H]21 [Cynaropicrin (4), Cynaropicrin]	30.6		6.88	33.5	
C=C1C(=O)O[C@@H]2C[C@@]3(C)CCC[C@H](C)C3=C[C@H]12 [Alantolactone (5), Alantolactone]	9.94			11	
C=C1C(=O)O[C@@H]2[C@H]3C(C)=CC[C@@]34O[C@@]4(C)CC[C@@H]12 [Arglabin (3), Arglabin]	30	39.4	7.33		
C=C1C(=O)O[C@H]2[C@H]1CC/C(C)=C/CC[C@@]1(C)O[C@@H]21 [Parthenolide (6), Parthenolide]	59.1		89.2	58.2	effect on mitochondrial membrane potential [5]: mitochondrial depolarization
C=C1C(=O)OC2CC(C)C3C=CC(=O)C3(C)C(OC(C)=O)C12 (centres unmarked) [Helenalin acetate (1), Helenalin acetate]	3.53	8.12	1.15		production of NO [6]: significantly increased the production of NO; IC99 value ([1]; promastigotes, 1 × 10^6 parasites/well): 6 µM; CC25 value [7]: 3 µM; SYTOX Green fluorescence (plasma membrane permeability) [8]: No significant increase of SYTOX Green fluorescence; decrease of Rd123 fluorescence (Δψm) [9]: 60%; infection of macrophages (light microscopy) ([4]; 0.33 µM, Figure S1c): relatively high amastigote number; infection of macrophages (light microscopy) ([4]; 1 µM, Figure S1b): A large number of infected macrophages is visible; infection of macrophages (light microscopy) ([4]; 3 µM, Figure S1a): very few infected macrophages with each very few amastigotes; alteration of the plasma membrane (L. (L.) mexicana; L. (L.) mexicana promastigotes, long-term treatment): no alteration of the plasma membrane; ultrastructural alterations (TEM) [10]: intense cytoplasmatic vacuolization, formation of autophagosomes, swelling of the mitochondrion, and chromatin decondensation; ROS production (H2DCFDA) ([2]; compound 1, 1 h of treatment): no alteration of ROS
